The test system of one series is human blood. In words: Immunogram Analyzer run: effect of borate and aspirin on ROX/BOX of human blood. Type of series: cell-based. To be noted: for effect on ROX and BOX: compared to saline runs on a patient's blood; for BOX / ROX / ROXNO / ROXO2: human blood aged 5 days at room temperature, 0.10 ml blood, 0.9 ml saline. An excerpt:
(§1) First, a testing apparatus having a sample well 10 or cell with a sensor or probe 20 and a reader/processor 30 is provided. […] The testing probes are inserted into the cell and the testing apparatus is calibrated so that the reading for levels of signaling materials is at zero. For example, a compound A, such as signaling material-free saline solution can be added to cell E derive an instrument baseline reading free of signaling material. Alternatively, a gas that is free of signaling material can be bubbled into the cell.
Once a baseline showing a zero reading for signaling materials is established, an amount of blood D is added to cell E. This amount of blood D can be a small quantity, such as between about 0.02 mL and about 0.10 mL, of freshly drawn or frozen blood from a test individual or patient. For convenience, a 3.00 mL sample of anticoagulated blood may be frozen for later analysis. Very small samples of blood, such as less than about 0.02 mL, may also be analyzed.
(§2) An initial reading is made of the levels of signaling materials in the sample prior to any stress being imposed. The mixture of compound A and blood D is then exposed to an initial stress B. A suitable stress would be physical shear stress produced by the administering syringe and/or a rotating magnetic stirrer. The sensor within the cell E then determines a drop in concentration of signaling materials, which is presumably brought on by the addition of stress B. Generally, this drop in signaling materials concentration yields the value of BOX, which is correlated to the ability of the system to incorporate signaling materials for transport. Following this drop, any rise in concentration of signaling materials yields the value of ROX, which correlates to the capacity of the system to provide a reservoir of signaling materials.
The sensor of the testing apparatus preferably includes two or more sensors—one may be a membrane-based oxygen electrode 22, such as a polarographic Clark oxygen electrode, which measures O2, NO, H2S and other signaling materials that are unbound and can thus permeate through the membrane. In polarographic sensors, an anode, which is polarized, and a cathode are immersed in an electrolyte, into which oxygen and other signaling materials, permeates through the membrane. The anode/cathode pair causes current to flow in direct proportion to the amount of signaling material, such as oxygen, entering the system. The magnitude of the current thus directly correlates to the amount of signaling material entering the probe or sensor. It would be apparent that a membrane-based sensor necessarily depletes the sample of the material being tested as a result of consumption, yet the level of material consumed by the sensor is considered herein to be of an order of magnitude as to be insignificant for practical purposes.
The other sensor 24 or probe may be an optical fluorescence dissolved oxygen analyzer, such as an Ocean Optics ruthenium-coated fiber optical light emitting diode (LED) probe, and can also include other suitable light based devices, including a laser (hereinafter referred to collectively as an “optical sensor”), which determines an amount of value for O2 and the bundled O2 reservoir (ROXO2). Other sensors, such as chip-based sensors, may also be used on the basis of price, convenience, and sensitivity to new signaling and reactive substances.
As used herein, “ROXO2” is determinable O2 reservoir, and “ROXNO” is determinable NO reservoir. When bundled by the blood, and, in particular, the white blood cells, which are preparing signaling materials for use by the body, ROXO2 and ROXNO are unable to travel through the membrane sensor. However, after a BOX event occurs, increased levels of signaling materials in the sample, as determined by either the membrane or optical sensor, which tend to track each other, yield amounts of ROXO2 and ROXNO. […]

For a further series, the system named is bovine blood standard. Type of series: cell-based.
Source text: as §1
as §2, with “Following this drop, any rise in concentration of signaling materials yields the value of ROX, which correlates to the capacity of the system to provide a reservoir of signaling materials.” left out
The other sensor 24 or probe may be an optical fluorescence dissolved oxygen analyzer, such as an Ocean Optics ruthenium-coated fiber optical light emitting diode (LED) probe, and can also include other suitable light based devices, including a laser (hereinafter referred to collectively as an “optical sensor”), which determines an amount of value for O2 and the bundled O2 reservoir (ROXO2). […]
Between these two or more sensors, therefore, the testing provides a reading for O2, NO, ROXO2, and NO that is in a bundled reservoir (ROXNO), as shown in FIGS. 6 and 7. […] Thus, the readings from the membrane probe and the optical probe together provide a total concentration of BOX and ROX (ROXO2+ROXNO) in the sample after exposure to physical stress B. Also, the slopes of the curves in FIGS. 6 and 7 yield valuable information with respect to the rates of reaction of these components. […]

borate: in the series on human blood, the “effect on ROX and BOX” value is “increases of BOX and ROX”; the BOX is 41% of air saturation; the ROX is 79% of air saturation; the ROXNO is on record as 31% of air saturation. In addition, the ROXO2 in the series with human blood is on record as 27% of air saturation. In addition, in the series with human blood (listed as borate eye wash), the “effect on ROX and BOX” value is “affect ROX and BOX”.
With acid-citrate-dextrose [ACD], in the series with bovine blood standard, the “Increases ROXO2 by” value came out at 10%, the “Lowers BOX by” value is reported as “Lowers BOX by 8%” and the “Lowers ROXNO by” value is on record as 25%.
With `CC(=O)Oc1ccccc1C(=O)O` [Aspirin, aspirin], in the series on human blood, the “effect on ROX and BOX” value was “affect ROX and BOX”; the BOX is given as 35% of air saturation; the ROX is given as 74% of air saturation; the ROXNO is reported as 34% of air saturation. Further, the ROXO2 with human blood is reported as 29% of air saturation. The “release of NO” value in the series with human blood (final run of FIG. 6, human blood) was “very rapid releases of NO”. The “rise of NO” value in the series with human blood (in 2 seconds, human blood) is recorded as “a 37% rise”.
